Reference: the supplement of paper PMC10307832

Key:
Experiment in all cases: relative viability (nuclei count vs DMSO), 5 days (fraction); higher = more cells survive
Shikonin = compound: CC(C)=CC[C@@H](O)C1=CC(=O)c2c(O)ccc(O)c2C1=O [Shikonin]
Outline: (§1)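 Viability here means nuclei in treated wells divided by nuclei in vehicle wells, reported as the median across plates. Only plates with control CV below 25% and at least one doubling passed. Lung cancer cell lines in 1536-well plates were exposed to five √10-spaced library-drug doses for 5 days and counted from 4× Hoechst images in MetaXpress.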

[1] = compound: CC(C)N(CCCNC(=O)Nc1ccc(C(C)(C)C)cc1)C[C@H]1O[C@@H](n2ccc3c(N)ncnc32)[C@H](O)[C@@H]1O
Outline: as §1

Shikonin + Alpelisib = compound: CC(C)=CC[C@@H](O)C1=CC(=O)c2c(O)ccc(O)c2C1=O [Shikonin] + Cc1nc(NC(=O)N2CCC[C@H]2C(N)=O)sc1-c1ccnc(C(C)(C)C(F)(F)F)c1 [Alpelisib] (partner 2 µM)
Outline: (§2)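 Lung cancer cell lines were seeded in 1536-well plates and dosed by pin tool the next day, with either a single drug or a fixed anchor-drug dose combined with five library-drug doses (not always all listed) spaced in √10 steps. Five days later, one step fixed the cells and stained their nuclei (final 0.05% Triton X-100, 1% formaldehyde, 1 ug/ml Hoechst), and nuclei were counted on 4× images. Relative viability is the nuclei count in treated wells divided by the count in vehicle wells, and each value is the median of duplicate plates.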

[2] = compound: CC(C)N(CCCNC(=O)Nc1ccc(C(C)(C)C)cc1)C[C@H]1O[C@@H](n2ccc3c(N)ncnc32)[C@H](O)[C@@H]1O + CC(C)C[C@H](NC(=O)[C@H](Cc1ccccc1)NC(=O)c1cnccn1)B(O)O [Bortezomib] (partner 0.002 µM)
Outline: as §2

Cell Line | relative viability (Shikonin; 0.01 µM) | relative viability (Shikonin; 0.1 µM) | relative viability (Shikonin; 0.3162 µM) | relative viability (Shikonin; 1 µM) | relative viability ([1]; 0.08 µM) | relative viability ([1]; 0.8 µM) | relative viability ([1]; 2.53 µM) | relative viability ([1]; 8 µM) | relative viability (Shikonin + Alpelisib; first compound 0.01 µM) | relative viability (Shikonin + Alpelisib; first compound 0.1 µM) | relative viability (Shikonin + Alpelisib; first compound 0.3162 µM) | relative viability (Shikonin + Alpelisib; first compound 1 µM) | relative viability ([2]; first compound 0.08 µM) | relative viability ([2]; first compound 0.253 µM) | relative viability ([2]; first compound 0.8 µM) | relative viability ([2]; first compound 2.53 µM) | relative viability ([2]; first compound 8 µM) | relative viability ([1]; 0.253 µM)
NCI-H1792 | 0.987 | 0.991 | 0.922 | 1.22 | 1.06 | 0.812 | 0.912 | 0.99 | 0.776 | 0.557 | 0.786 | 0.727 | 0.932 | 0.839 | 0.979 | 0.945 | 1.01 | 
NCI-H1299 | 1.05 | 1.06 | 1.01 | 0.973 | 0.979 | 0.955 | 0.999 | 0.963 | 1.11 | 1.06 | 1.04 | 1.07 | 1.03 | 0.987 | 0.966 | 1.04 | 1.04 | 1.01
NCI-H2023 | 1.05 | 1.17 | 1.19 | 0.972 | 0.955 | 0.977 | 0.931 | 0.846 | 0.579 | 0.709 | 0.589 | 0.598 | 0.89 | 0.451 | 0.872 | 1.09 | 0.821 | 0.864
LOU-NH91 | 0.984 | 1.04 | 1.04 | 1.02 | 0.981 |  | 0.979 | 1 | 0.703 | 0.73 | 0.839 | 0.727 | 0.442 | 0.449 |  | 0.421 | 0.608 | 0.908
NCI-H3122 | 1.03 | 1.07 | 1.07 | 1.04 | 0.978 | 0.965 | 0.954 | 0.993 | 0.752 | 0.823 | 0.844 | 0.79 | 1.02 | 0.994 | 1.04 | 1.03 | 0.978 | 0.98
LCLC-97TM1 | 0.991 | 1.02 | 1.08 | 0.968 | 1.05 | 1.07 | 0.903 | 0.989 | 0.246 | 0.238 | 0.25 | 0.292 | 0.681 | 0.686 | 0.493 | 0.422 | 0.631 | 1
NCI-H650 | 1.08 | 0.937 | 0.999 | 0.913 | 0.831 | 1.06 | 0.775 | 0.882 | 1.3 |  | 1.13 | 1.08 | 0.785 | 0.598 | 0.773 | 0.682 | 0.796 | 0.902
PC-14 | 1.08 | 1 | 1.12 | 1.11 | 0.975 | 0.951 | 0.967 | 0.904 | 0.933 | 1.01 | 1.07 | 1.07 | 0.83 | 0.852 | 0.859 | 1 | 0.743 | 0.981
H3255 | 0.978 | 1.06 | 1.05 | 1.02 | 0.876 | 0.919 | 0.933 | 0.893 | 0.637 | 0.721 | 0.629 | 0.689 | 0.867 | 0.618 | 0.406 | 0.638 | 0.747 | 0.929
NCI-H1437 | 0.989 | 1.01 | 0.998 | 0.989 | 0.926 | 0.92 | 0.965 | 0.957 | 0.987 | 1.14 | 0.987 | 1.1 | 0.526 | 0.417 | 0.309 | 0.423 | 0.536 | 0.941
LU99A | 1.02 | 1 | 0.996 | 0.923 | 0.876 | 1.04 | 0.979 | 1.02 | 0.592 | 0.671 | 0.576 | 0.441 | 1.12 | 0.831 | 1.38 | 1.16 | 1.2 | 0.842
HCC-827 | 1.04 | 1.04 | 1.04 | 1.06 | 1.03 | 0.584 | 1.01 | 0.961 | 0.996 | 1.11 | 0.994 | 0.812 | 1.08 | 0.969 | 0.668 | 1.02 | 0.993 | 1.06
HCC-366 | 0.975 | 1.15 | 1.04 | 1.03 | 0.965 | 0.927 | 0.984 | 0.892 | 0.329 | 0.347 | 0.423 | 0.379 | 0.996 | 0.999 | 0.948 | 1.05 | 1.04 | 0.988
BEN | 0.926 | 1 | 1.03 | 1.18 | 0.954 | 0.948 | 0.863 | 1.03 | 1.09 | 1.1 | 1.12 | 1.24 | 0.934 | 0.762 | 0.776 | 0.662 | 0.57 | 1.02
NCI-H2347 | 0.971 | 1.07 | 1.06 | 0.984 | 1.02 | 0.935 | 1.06 | 0.955 | 0.992 | 0.99 | 0.962 | 1.03 | 1.14 | 0.871 | 0.534 | 0.924 | 1 | 0.963
201T | 1 | 1.06 | 1.02 | 1.09 | 1 | 0.746 | 0.981 | 1.02 | 0.941 | 1.11 | 0.997 | 1.02 | 1.08 | 1.11 | 1.03 | 1.07 | 1.06 | 1.02
NCI-H596 | 0.935 | 0.962 | 1.04 | 1.08 | 0.976 | 0.962 | 1.11 | 1.09 | 0.464 | 0.481 | 0.543 | 0.504 | 0.997 | 0.843 | 0.746 | 1.05 | 1.2 | 0.795
NCI-H838 | 1.09 | 1.04 | 1.03 | 0.988 | 0.92 | 0.931 | 0.958 | 0.904 | 1.02 | 1.18 | 1.04 | 1.21 | 0.755 | 0.372 | 0.626 | 0.672 | 0.788 | 0.748
HCC-15 | 1.06 | 1.04 | 1.12 | 1.09 | 0.938 | 0.786 | 0.979 | 0.914 | 0.881 | 0.949 | 1.04 | 0.912 | 0.979 | 1.04 | 0.773 | 1 | 0.943 | 0.986
NCI-H1563 | 0.944 | 0.954 | 1.01 | 0.959 | 0.918 | 0.944 | 1.03 | 0.957 | 0.906 | 0.999 | 0.875 | 0.779 | 0.844 | 0.811 | 0.626 | 0.873 | 0.902 | 0.849
ABC-1 | 0.921 | 1.13 | 0.91 | 0.764 | 0.859 |  | 1.05 | 1.01 | 1.17 | 1.3 | 0.901 | 0.514 | 0.28 | 0.249 |  | 0.344 | 0.325 | 0.797
LCLC-103H | 0.946 | 1.2 | 1.05 | 1.08 | 0.946 | 0.857 | 0.839 | 1.01 | 0.984 | 0.994 | 0.896 | 0.978 | 1.09 | 1 | 0.686 | 1.04 | 1.02 | 0.966
NCI-H460 | 1.06 | 1.07 | 1.07 | 1.05 | 0.982 | 0.935 | 0.996 | 1.02 | 0.522 | 0.841 | 0.618 | 0.569 | 0.967 | 1.3 | 1.2 | 1.15 | 1.13 | 0.953
EPLC-272H | 0.906 | 0.974 | 1.06 | 1.09 | 0.907 | 0.968 | 0.936 | 0.859 | 0.964 | 1.06 | 0.946 | 0.962 | 0.871 | 0.819 | 0.397 | 0.923 | 0.942 | 0.883
